According to patent US6518272B2, “Cycloalkyl-substituted aryl-piperazines, piperidines and tetrahydropyridines as serotonergic agents” (Wyeth, priority 1998, dated 2003):
Structures can show the parent of a compound that is named as a salt.

melting point [°C]	Compound
119 to 121	COc1ccccc1N1CCN(C[C@@H](CC2CCCCC2)NC(=O)C2(C)CCCCC2)CC1 (as salt: hydrochloride) (hydrate or solvate) [Example 2, 1-Methyl-cyclohexanecarboxylic Acid of {(1R)-1-Cyclohexylmethyl-2-[4-(2-methoxyphenyl)-piperazin-1-yl]-ethyl}-amide]
147 to 148	CN(C(=O)C1CCCCC1)[C@H](CC1CCCCC1)CN1CCN(c2cccc3c2OCCO3)CC1 (as salt: hydrochloride) (hydrate or solvate) [Example 5]
> 260	CN(C(=O)C1CCCCC1)[C@H](CC1CCCCC1)CN1CCN(c2cccc3[nH]ccc23)CC1 (as salt: hydrochloride) (hydrate or solvate) [Example 7, Cyclohexanecarboxylic Acid {(1R)-1-Cyclohexylmethyl-2-[4-(1H-indol-4-yl)-piperazin-1-yl]-ethyl}-methyl-amide]
157 to 159	COc1ccccc1N1CCN(C[C@@H](CC2CCCCC2)NC=O)CC1 (as salt: hydrochloride) (hydrate or solvate) [Example 9, N-{(1R)-1-Cyclohexylmethyl-2-[4-(2-methoxyphenyl)-piperazin-1-yl]-ethyl}-formamide]
100 to 103	COc1ccccc1C1CCN(C[C@@H](CC2CCCCC2)NC(=O)C2CCCCC2)CC1 (as salt: hydrochloride) (hydrate or solvate) [Example 15, Cyclohexanecarboxylic Acid {(1R)-1-Cyclohexylmethyl-2-[4-(2-methoxyphenyl)-piperidin-1-yl]-ethyl}-amide]
208 to 210	COc1ccccc1C1CCN(C[C@@H](CC2CCCCC2)NC(=O)C2(C)CCCCC2)CC1 (as salt: hydrochloride) (hydrate or solvate) [Example 16, 1-Methyl-cyclohexanecarboxylic acid {(1R)-1-cyclohexylmethyl-2-[4-(2-methoxyphenyl)-piperidin-1-yl]-ethyl}-amide]
135 to 137	COc1ccccc1C1CCN(C[C@@H](CC2CCCCC2)N(C)C(=O)C2CCCCC2)CC1 (as salt: hydrochloride) (hydrate or solvate) [Example 17, Cyclohexanecarboxylic Acid {(1R)-1-Cyclohexylmethyl-2-[4-(2-methoxyphenyl)-piperidin-1-yl]-ethyl}-methyl-amide]
169 to 171	COc1ccccc1C1CCN(C[C@@H](CC2CCCCC2)N(C)C(=O)C2(C)CCCCC2)CC1 (as salt: hydrochloride) (hydrate or solvate) [Example 18, 1-Methyl-cyclohexanecarboxylic Acid {(1R)-1-Cyclohexylmethyl-2-[4-(2-methoxypheniyl)-piperidin-1-yl]-ethyl}-methyl-amide]
97 to 99	COc1ccccc1C1CCN(C[C@@H](CC2CCCCC2)NC(=O)C(C)(C)C)CC1 (as salt: hydrochloride) (hydrate or solvate) [Example 19, N-{(1R)-1-Cyclohexylmethyl-2-[4-(2-methoxyphenyl)-piperidin-1-yl]-ethyl}-2,2-dimethyl-propionamide]
233 to 236	COc1ccccc1C1CCN(C[C@@H](CC2CCCCC2)N(C)C(=O)C(C)(C)C)CC1 (as salt: hydrochloride) (hydrate or solvate) [Example 20, N-{(1R)-1-Cyclohexylmethyl-2-[4-(2-methoxyphenyl)-piperidin-1-yl]-ethyl}-2,2,N-trimethyl-propionamide]
121 to 131	COc1ccccc1N1CCN(C[C@@H](CC2CCCCC2)NC(=O)C2CCCCC2)CC1 (as salt: hydrochloride) [Example 1, Cyclohexanecarboxylic Acid {(1R)-1-Cyclohexylmethyl-2-[4-(2-methoxyphenyl)-piperazin-1-yl]-ethyl}-amide]
222 to 224	COc1ccccc1N1CCN(C[C@@H](CC2CCCCC2)N(C)C(=O)C2CCCCC2)CC1 (as salt: hydrochloride) [Example 3, Cyclohexanecarboxylic Acid {(1R)-1-Cyclohexylmethyl-2-[4-(2-methoxyphenyl)-piperazin-1-yl]-ethyl}-methyl-amide]
208 to 210	COc1ccccc1N1CCN(C[C@@H](CC2CCCCC2)N(C)C(=O)C2(C)CCCCC2)CC1 (as salt: hydrochloride) [Example 4, 1-Methyl-cyclohexanecarboxylic Acid {(1R)-1-Cyclohexylmethyl-2-[4-(2-methoxyphenyl)-piperazin-1-yl]-ethyl}-methyl-amide]
219 to 220	CN(C(=O)C1(C)CCCCC1)[C@H](CC1CCCCC1)CN1CCN(c2cccc3c2OCCO3)CC1 (as salt: hydrochloride) [Example 6, 1-Methyl-cyclohexanecarboxylic Acid {(1R)-1-Cyclohexylmethyl-2-[4-(2,3-dihydro-benzo[1,4]dioxin-5-yl)-piperazin-1-yl]-ethyl}-methyl-amide]
253 to 254	CN(C(=O)C1(C)CCCCC1)[C@H](CC1CCCCC1)CN1CCN(c2cccc3[nH]ccc23)CC1 (as salt: hydrochloride) [Example 8]
121 to 123	O=C(N[C@H](CC1CCCCC1)CN1CCN(c2ncccn2)CC1)C1CCCCC1 (as salt: hydrochloride) [Example 10, Cyclohexanecarboxylic Acid {(1R)-1-Cyclohexylmethyl-2-[4-(pyrimidin-2-yl)-piperazin-1-yl]-ethyl}-amide]
112 to 114	O=C(N[C@H](CC1CCCCC1)CN1CCN(c2ncccn2)CC1)C1CCC1 (as salt: hydrochloride) [Example 11, Cyclobutane Carboxylic Acid {(1R)-1-Cyclohexylmethyl-2-[4-(pyrimidin-2-yl)-piperazin-1-yl]-ethyl}-amide]
107 to 109	COc1cccc(N2CCN(C[C@H](CC3CCCCC3)NC(=O)C3CCCCC3)CC2)n1 (as salt: hydrochloride) [Example 12, Cyclohexane Carboxylic Acid {(1S)-1-Cyclohexylmethyl-2-[4-(6methoxypyridin-2-yl)-piperazin-1-yl]-ethyl}-amide]
229 to 232	O=C(N[C@H](CC1CCCCC1)CN1CCN(c2nc3ccccc3s2)CC1)C1CCCCC1 (as salt: hydrochloride) [Example 13, Cyclohexanecarboxylic Acid {(1R)-1-Cyclohexylmethyl-2-[4-(benzothiazol-2-yl)-piperazin-1-yl]-ethyl}-amide]
155 to 159	O=C(N[C@H](CC1CCCCC1)CN1CCN(c2nccc3ccccc23)CC1)C1CCCCC1 (as salt: hydrochloride) [Example 14, Cyclohexanecarboxylic Acid {(1R)-1-Cyclohexylmethyl-2-[4-(isoquinolin-1-yl)-piperazin-1-yl]-ethyl}-amide]

Compound	melting point [°C]
COc1ccccc1C1=CCN(C[C@@H](CC2CCCCC2)NC(=O)C2(C)CCCCC2)CC1 (as salt: hydrochloride) (hydrate or solvate) [Example 21, 1-Methyl-cyclohexanecarboxylic Acid {(1R)-1-Cyclohexylmethyl-2-[4-(2-methoxyphenyl)-3,6-dihydro-2H-pyridin-1-yl]-ethyl}-amide]	93 to 95
